Data on three compounds can be found in patent US10738041B2, “Ferroportin inhibitors” (Vifor (International) AG, priority 2015, dated 2020).

pIC50: −log10 of the molar value. Marks after values point to notes of the source that are not given here.

What is called pIC50 is −log10 of the IC50, conventionally taken in molar units.

Assay [1] has as its target T1, ferroportin (Fpn) (Mus musculus, UniProt Q9JHI9).
T1 construct: host or cells: J774 mouse macrophage cell line, Fe(III)-NTA induced
T1 sequence (Q9JHI9 1-570): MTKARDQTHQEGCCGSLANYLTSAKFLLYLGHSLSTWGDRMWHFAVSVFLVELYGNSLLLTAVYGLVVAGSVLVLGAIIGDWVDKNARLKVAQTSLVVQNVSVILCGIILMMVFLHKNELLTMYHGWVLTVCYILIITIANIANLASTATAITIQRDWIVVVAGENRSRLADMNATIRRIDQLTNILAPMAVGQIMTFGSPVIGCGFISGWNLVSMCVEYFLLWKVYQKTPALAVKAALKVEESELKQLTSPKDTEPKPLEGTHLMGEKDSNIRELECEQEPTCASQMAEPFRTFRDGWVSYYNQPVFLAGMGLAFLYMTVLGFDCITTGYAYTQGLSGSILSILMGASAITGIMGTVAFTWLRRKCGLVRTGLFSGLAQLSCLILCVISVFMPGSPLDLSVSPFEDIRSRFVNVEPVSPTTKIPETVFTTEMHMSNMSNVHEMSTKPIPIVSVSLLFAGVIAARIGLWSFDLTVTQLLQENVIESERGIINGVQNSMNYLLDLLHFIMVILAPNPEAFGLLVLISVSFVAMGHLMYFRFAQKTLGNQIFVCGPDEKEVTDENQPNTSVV
Put plainly: Hepcidin Internalization Assay (J774). To be noted: average of multiple measurements; inhibition of TMR-hepcidin (25 nM) internalization into J774 cells; read-out: J774 IC50. Format: cell-based. In short, it runs like this: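 Mouse J774 macrophages, loaded overnight with 200 μM Fe(III)NTA, incubated 2 h at 37 °C with test compounds and TMR-labeled hepcidin. Cell-associated TMR fluorescence, a proxy for hepcidin binding to Fpn and internalization, quantified by automated imaging with Hoechst nuclear counterstain after fixation; IC50 from log(inhibitor) vs. response fit, triplicates.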

For assay [2], the system named is naïve WT C57BL/6 mice. Put plainly: Hypoferremia in naïve mice. Format: in vivo, mouse. To be noted: Mus musculus, po, 3 h, naïve WT C57BL/6 mice, relative to vehicle, read-out: Serum Iron Reduction at 3 h (%); for inhibition in vivo at 10 mg/kg: Dose 10 mg/kg p.o.; for inhibition in vivo at 30 mg/kg: Dose 30 mg/kg p.o.; for inhibition in vivo at 100 mg/kg: Dose 100 mg/kg p.o. The protocol:
Female C57BL/6 mice (Janvier, France) at age of 9 weeks were fed a standard diet (Harlan Provimi Kliba 3436) and treated per os (p.o.) with compounds or the corresponding amount of vehicle at a volume of 10 ml/kg body weight. Fpn inhibitors were formulated in 0.5% methylcellulose/water or 20% cremophor EL/water and dosed p.o. in mice at 10, 30 or 100 mg/kg body weight. Three hours later, mice were pre terminally anesthetized in isoflurane chambers and blood was collected by retro-orbital bleeding. Mice were sacrificed by cervical dislocation and spleens, livers and duodena were harvested and used for biomarker analysis. All experiments have been conducted in compliance with the license approved by the responsible veterinarian authorities. Serum was isolated by centrifugation of blood into gel-containing microtainers and serum iron was determined by the MULTIGENT Iron assay (Abbott Diagnostics, 6K95). Eight mice per group were used and one-way ANOVA with Bonferroni's multiple comparison test was performed to analyze the statistical differences between the experimental groups.

Assay [3] deals with b2m−/− mice. Put plainly: Prevention of iron overload in beta2-microglobulin deficient mice. The class given is in vivo, mouse. Particulars: 14 day treatment; for 58Fe Liver Iron Reduction (%): ICP-MS; for Total Liver Iron Reduction (%) / Total Spleen Iron Increase (%): ICP-OES. The protocol:
The efficacy of the Fpn inhibitors to prevent liver iron accumulation in b2m−/− mice was investigated. Three weeks old b2−/− mice fed LID were dosed with either Fpn inhibitor or vehicle (methylcellulose; 10 ml/kg). Mice had access to drinking water supplemented with 1 mM^58Fe(II)-sulfate and 10 mM ascorbic acid. Dosing of Fpn inhibitor or vehicle followed by exposure to iron-containing water was repeated for 14 days. Mice were euthanized and the liver and spleen iron contents were analyzed by ICP-OES (all iron isotopes) and liver tissue was also analyzed for ^58Fe concentration (ICP-MS).

As to `O=C(NCc1ncccc1F)c1coc(CCNCCc2nc3ccccc3[nH]2)n1` [Example 127], the pIC50 in assay [1] was 8.05. In addition, in assay [2], the inhibition in vivo at 10 mg/kg came out at 17%, the inhibition in vivo at 30 mg/kg was determined as 47% and the inhibition in vivo at 100 mg/kg was found to be 54%. Besides, in assay [3] (female, 20 mg/kg p.o. b.i.d.), the “58Fe Liver Iron Reduction (%)” value turned out to be 34%, the “Total Liver Iron Reduction (%)” value is recorded as −38% and the “Total Spleen Iron Increase (%)” value is given as 71* %. For the same compound, in assay [3] (female, 60 mg/kg p.o. b.i.d.), the “58Fe Liver Iron Reduction (%)” value is 63*** %, the “Total Liver Iron Reduction (%)” value was determined as 2% and the “Total Spleen Iron Increase (%)” value is reported as 51%. Besides, in assay [3] (male, 20 mg/kg p.o. b.i.d.), the “58Fe Liver Iron Reduction (%)” value is given as 71*** %, the “Total Liver Iron Reduction (%)” value is on record as 50** % and the “Total Spleen Iron Increase (%)” value is listed as −7%. In addition, in assay [3] (male, 60 mg/kg p.o. b.i.d.), the “58Fe Liver Iron Reduction (%)” value is listed as 73*** %, the “Total Liver Iron Reduction (%)” value is reported as 65*** % and the “Total Spleen Iron Increase (%)” value is recorded as −16%.
`O=C(NCc1ncccc1F)c1coc(C2CN(CCc3nc4ccccc4[nH]3)C2)n1` [Example 208]: the pIC50 in assay [1] is 7.92. Also, in assay [2], the inhibition in vivo at 10 mg/kg worked out at 50%, the inhibition in vivo at 30 mg/kg came to 65% and the inhibition in vivo at 100 mg/kg amounted to 73%. In addition, in assay [3] (female, 20 mg/kg p.o. b.i.d.), the “58Fe Liver Iron Reduction (%)” value is 71* %, the “Total Liver Iron Reduction (%)” value was determined as 15% and the “Total Spleen Iron Increase (%)” value was 56** %. In addition, in assay [3] (female, 60 mg/kg p.o. b.i.d.), the “58Fe Liver Iron Reduction (%)” value is on record as 87** %, the “Total Liver Iron Reduction (%)” value was 8% and the “Total Spleen Iron Increase (%)” value is 150*** %. Also, in assay [3] (male, 20 mg/kg p.o. b.i.d.), the “58Fe Liver Iron Reduction (%)” value amounted to 58% and the “Total Spleen Iron Increase (%)” value stood at 21%. For the same compound, in assay [3] (male, 60 mg/kg p.o. b.i.d.), the “58Fe Liver Iron Reduction (%)” value is 94** %, the “Total Liver Iron Reduction (%)” value was 84** % and the “Total Spleen Iron Increase (%)” value was determined as 43%.
Turning to `O=C(NCc1ncccc1F)c1csc(CCNCCc2nc3ccccc3[nH]2)n1` [Example 94], the negative logarithm of the IC50 (pIC50) in assay [1] is 7.92. Further, in assay [2], the inhibition in vivo at 10 mg/kg came out at 30%, the inhibition in vivo at 30 mg/kg is 50% and the inhibition in vivo at 100 mg/kg worked out at 80%. Further, in assay [3] (female, 60 mg/kg p.o. b.i.d.), the “Total Liver Iron Reduction (%)” value is recorded as 57% and the “Total Spleen Iron Increase (%)” value was 65%. Besides, the “Total Liver Iron Reduction (%)” value in assay [3] (male, 60 mg/kg p.o. b.i.d.) is given as 79%.
